Six molecules from US4656166A, “Antibiotic compounds derived from cephalosporins, process for their production and pharmaceutical compositions” (Sanofi, priority 1983, dated 1987) can be followed below.

The subject of assay [1] is Escherichia coli SOL 90. The assay can be described thus: MIC, in vitro dilution method, Escherichia coli SOL 90 (Table III). It counts as cell-based. The following applies: SOL90; Escherichia coli SOL 90; dilution method; read-out: MIC. In outline: (§1)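 In vitro dilution method, Gram-negative strain panel; read-out = minimum inhibiting concentration, μg/ml.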
A further assay relates to Citrobacter RL 49. Briefly: MIC, in vitro dilution method, Citrobacter RL 49 (Table III). The following applies: RL49. Type of assay: cell-based. In outline:
as §1

Assay [2] deals with Proteus vulgaris RL 99 bis. Briefly: MIC, in vitro dilution method, Proteus vulgaris RL 99 bis (Table III). To be noted: RL99BIS. It counts as cell-based. The method in brief: as §1
The next assay relates to Serratia RL 72. The assay can be described thus: MIC, in vitro dilution method, Serratia RL 72 (Table III). It counts as cell-based. The following applies: RL72. The method in brief: as §1
Assay [3] has as its system Klebsiella RO 30. The assay can be described thus: MIC, in vitro dilution method, Klebsiella RO 30 (Table III). Type of assay: cell-based. To be noted: RO30; Klebsiella RO 30; dilution method; read-out: MIC. The method in brief:
as §1

A further assay concerns Enterobacter RO 154. The assay can be described thus: MIC, in vitro dilution method, Enterobacter RO 154 (Table III). Type of assay: cell-based. To be noted: RO154; Enterobacter RO 154; dilution method; read-out: MIC. The method in brief: as §1
A further assay relates to Pseudomonas RL 112. The assay can be described thus: MIC, in vitro dilution method, Pseudomonas RL 112 (Table III). It counts as cell-based. To be noted: RL112. The method in brief:
as §1

Another assay concerns Escherichia coli 255. Briefly: MIC on beta-lactamase producing strain Escherichia coli 255 (Table IV). Type of assay: cell-based. To be noted: Escherichia coli 255, producing beta-lactamases; read-out: MIC. How it is done:
(§2) To evaluate the stability of these products towards beta-lactamases, their MIC was determined on isogenic strains producing and not producing beta-lactamases.
(§3) The results are expressed in μg/ml in Table IV.

For another assay, the system named is Escherichia coli 255/L.7. Briefly: MIC on strain not producing beta-lactamase, Escherichia coli 255/L.7 (Table IV). Type of assay: cell-based. The following applies: Escherichia coli 255/L.7 *, not producing beta-lactamases; read-out: MIC. On the procedure: as §2, §3
Assay [4] has as its system Serrtia liquefaciens SL/326 A. The assay can be described thus: MIC on beta-lactamase producing strain Serratia liquefaciens SL/326 A (Table IV). It counts as cell-based. How it is done:
as §2, §3

Assay [5] deals with Serrtia liquefaciens SL 1326 S. Briefly: MIC on strain not producing beta-lactamase, Serratia liquefaciens SL 1326 S (Table IV). It counts as cell-based. To be noted: SL1326S, not producing beta-lactamases. How it is done: as §2, §3
Assay [6] has as its system Proteus vulgaris GN 76/C.1. The assay can be described thus: MIC on beta-lactamase producing strain Proteus vulgaris GN 76/C.1 (Table IV). Type of assay: cell-based. The following applies: GN76. How it is done:
as §2, §3

For assay [7], the system named is Escherichia coli SOL 90. The assay can be described thus: septicemic model of the mouse, Escherichia coli SOL 90 (Table V). It counts as in vivo. To be noted: SOL90, sc, 96 h, mouse septicemia, sub-cutaneous, 1 to 5 hours after inoculation, 4 days observation, read-out: DE50 (the source's name). How it is done:
The therapeutic effectiveness of the products was determined on the septicemic model of the mouse. the septicemia was initiated by the intraperitoneal innoculation of 0.5 ml of a suitable dilution of a suspension of the Escherichia coli SOL 90 strain. The products were administered in solution in a phosphate buffer pH 7.0 in a volume of 0.2 ml sub-cutaneously to batches of 10 mice, 1 to 5 hours after innoculation of the microorganism. After 4 days of observation in the course of which the mortality was noted, the 50% effective doses (DE 50) were calculated by the Muench and Reed method.

Assay [8] relates to Klebsiella RO 30. Briefly: septicemic model of the mouse, Klebsiella RO 30 (Table V). Type of assay: in vivo. To be noted: RO30, sc, 96 h, mouse septicemia, sub-cutaneous, 4 days observation, read-out: DE50 (the source's name).
For assay [9], the system named is Proteus vulgaris GN 76/C.1/3. The assay can be described thus: MIC on strain not producing beta-lactamase, Proteus vulgaris GN 76/C.1/3 (Table IV). To be noted: GN76, not producing beta-lactamases. Type of assay: cell-based. How it is done:
as §2, §3

Setting [10] is: Citrobacter RL 49, dilution method, read-out: MIC.
Setting [11] is: Proteus vulgaris RL 99 bis, dilution method, read-out: MIC.
Where [12] appears, read: Proteus vulgaris GN 76/C.1, producing beta-lactamases, read-out: MIC.

≈ marks a conversion by molar mass, not a printed value. Like-named read-outs stand apart in the source and are kept apart here. Bounds are passed on as bounds.

What is called MIC is the smallest concentration in the dilution series that meets the test's criterion for growth inhibition. Regarding `CC(C)(CN)C(=O)OCC1=C(C(=O)O)N2C(=O)C(NC(=O)/C(=N\OC(C)(C)C(=O)O)c3csc(N)n3)C2[S+]([O-])C1` (stereo not shown) [42 073], the MIC in the assay on Escherichia coli SOL 90 [1] was 1 µg/mL (≈ 1.66 µM); in the assay on Citrobacter RL 49 (setting [10]), 0.5 µg/mL (≈ 0.832 µM); in [2] (setting [11]), 0.5 µg/mL (≈ 0.832 µM); in the assay with Serratia RL 72, 2 µg/mL (≈ 3.33 µM); with Klebsiella RO 30 [3], 0.5 µg/mL (≈ 0.832 µM); in the assay on Enterobacter RO 154, 4 µg/mL (≈ 6.66 µM). Also, the MIC against Pseudomonas RL 112 is 4 µg/mL (≈ 6.66 µM); in the assay with Escherichia coli 255, 0.5 µg/mL (≈ 0.832 µM); with Escherichia coli 255/L.7 it was 0.25 µg/mL (≈ 0.416 µM); in assay [4], 0.25 µg/mL (≈ 0.416 µM); in assay [5], not above 0.12 µg/mL; in [6] (setting [12]), 0.5 µg/mL (≈ 0.832 µM). The ED50 with Escherichia coli SOL 90 [7] is 0.33 mg/kg.

As to `CC(C)(ON=C(C(=O)NC1C(=O)N2C(C(=O)O)=C(CSC(=O)C3CCNCC3)C[S+]([O-])C12)c1csc(N)n1)C(=O)O` (stereo not shown) [compound 41973], the MIC was 0.25 µg/mL (≈ 0.398 µM) in the assay on Escherichia coli 255; 0.25 µg/mL (≈ 0.398 µM) with Escherichia coli 255/L.7; 0.25 µg/mL (≈ 0.398 µM) in assay [4]; not above 0.12 µg/mL in assay [5]; 0.5 µg/mL (≈ 0.795 µM) in [6] (setting [12]). Besides, the ED50 with Escherichia coli SOL 90 [7] turned out to be 0.22 mg/kg; in the assay with Klebsiella RO 30 [8], 0.4 mg/kg.

In the case of `CC(C)(O/N=C(\C(=O)NC1C(=O)N2C(C(=O)O)=C(COC(=O)[C@H]3CC[C@H](CN)CC3)C[S+]([O-])C12)c1csc(N)n1)C(=O)O` (stereo partly shown) [42 117], the minimum inhibitory concentration (MIC) was 0.25 µg/mL (≈ 0.39 µM) in the assay with Escherichia coli SOL 90 [1]; 0.25 µg/mL (≈ 0.39 µM) in the assay on Citrobacter RL 49 (setting [10]); not above 0.12 µg/mL in assay [2] (setting [11]); 0.5 µg/mL (≈ 0.78 µM) in the assay with Serratia RL 72; not above 0.12 µg/mL in the assay with Klebsiella RO 30 [3]; 1 µg/mL (≈ 1.56 µM) with Enterobacter RO 154. Also, the MIC was 4 µg/mL (≈ 6.24 µM) in the assay with Pseudomonas RL 112; 0.125 µg/mL (≈ 0.195 µM) in the assay on Escherichia coli 255; 0.06 µg/mL (≈ 0.0936 µM) in the assay on Escherichia coli 255/L.7; 0.12 µg/mL (≈ 0.187 µM) in assay [4]; not above 0.06 µg/mL in assay [5]; not above 0.06 µg/mL in [6] (setting [12]). In assay [9], this molecule yielded an MIC not above 0.06 µg/mL. In the assay with Escherichia coli SOL 90 [7], the ED50 is 0.11 mg/kg.

For `CC(C)(ON=C(C(=O)NC1C(=O)N2C(C(=O)O)=C(CSC(=O)c3ccc(CN)cc3)C[S+]([O-])C12)c1csc(N)n1)C(=O)O` (stereo not shown) [compound 42119], the MIC is 0.5 µg/mL (≈ 0.768 µM) in the assay with Escherichia coli SOL 90 [1]; 0.25 µg/mL (≈ 0.384 µM) in the assay on Citrobacter RL 49 (setting [10]); not above 0.12 µg/mL in [2] (setting [11]); 4 µg/mL (≈ 6.15 µM) in the assay with Serratia RL 72; 0.5 µg/mL (≈ 0.768 µM) with Klebsiella RO 30 [3]; 8 µg/mL (≈ 12.3 µM) with Enterobacter RO 154. The MIC was 8 µg/mL (≈ 12.3 µM) against Pseudomonas RL 112; 0.25 µg/mL (≈ 0.384 µM) with Escherichia coli 255; 0.12 µg/mL (≈ 0.184 µM) in the assay with Escherichia coli 255/L.7; 0.25 µg/mL (≈ 0.384 µM) in assay [4]; not above 0.06 µg/mL in assay [5]; 0.12 µg/mL (≈ 0.184 µM) in [6] (setting [12]). Besides, the ED50 in the assay on Escherichia coli SOL 90 [7] is 0.16 mg/kg.

Turning to `NCC(=O)Nc1nc(C(=O)OCC2=C(C(=O)O)N3C(=O)C(NC(=O)C(=NOC4(C(=O)O)CCC4)c4csc(N)n4)C3[S+]([O-])C2)cs1` (stereo not shown) [42 547], the MIC in the assay with Escherichia coli SOL 90 [1] is 0.5 µg/mL (≈ 0.718 µM); in the assay on Citrobacter RL 49 (setting [10]), 0.25 µg/mL (≈ 0.359 µM); in assay [2] (Proteus vulgaris) it was not above 0.125 µg/mL; against Serratia RL 72 it was 0.5 µg/mL (≈ 0.718 µM); in the assay with Klebsiella RO 30 [3] it was 0.25 µg/mL (≈ 0.359 µM); in the assay on Enterobacter RO 154, 0.5 µg/mL (≈ 0.718 µM). Moreover, the MIC is 4 µg/mL (≈ 5.74 µM) in the assay with Pseudomonas RL 112; 0.125 µg/mL (≈ 0.179 µM) in the assay on Escherichia coli 255; not above 0.0312 µg/mL with Escherichia coli 255/L.7; 2 µg/mL (≈ 2.87 µM) in [4]; 0.125 µg/mL (≈ 0.179 µM) in [5]; 0.0625 µg/mL (≈ 0.0897 µM) in [6] (setting [12]). The molecule also yielded a minimum inhibitory concentration (MIC) in assay [9] of 0.25 µg/mL (≈ 0.359 µM).

Regarding `CC(C)(ON=C(C(=O)NC1C(=O)N2C(C(=O)O)=C(COC(=O)C3CCN(C(=O)CN)CC3)C[S+]([O-])C12)c1csc(N)n1)C(=O)O` (stereo not shown) [42 549], the MIC with Escherichia coli SOL 90 [1] is 0.25 µg/mL (≈ 0.373 µM); in the assay with Citrobacter RL 49 (Citrobacter) it was not above 0.125 µg/mL; in assay [2] (Proteus vulgaris) it was not above 0.125 µg/mL; with Serratia RL 72 it was 0.5 µg/mL (≈ 0.747 µM); with Klebsiella RO 30 [3], 0.25 µg/mL (≈ 0.373 µM); in the assay with Enterobacter RO 154 it was 0.25 µg/mL (≈ 0.373 µM). Moreover, the MIC was 4 µg/mL (≈ 5.97 µM) against Pseudomonas RL 112; 0.125 µg/mL (≈ 0.187 µM) in the assay on Escherichia coli 255; 0.0625 µg/mL (≈ 0.0933 µM) in the assay with Escherichia coli 255/L.7; 0.125 µg/mL (≈ 0.187 µM) in assay [4]; not above 0.0312 µg/mL in assay [5]; not above 0.0312 µg/mL in [6] (Proteus vulgaris). In assay [9], this molecule showed an MIC of 0.0625 µg/mL (≈ 0.0933 µM).
